Laboratory results taken from US9487479B2, “Small molecule inhibitors of N-terminus activation of the androgen receptor” (The University of British Columbia, priority 2008, dated 2016).

Key:
[1] = molecular target: T1, glucocorticoid receptor (GR) (Homo sapiens, UniProt P04150); experiment: GRE-luciferase reporter assay in LNCaP cells transfected with hGR; assay type: cell-based; settings: 5 μg/ml, dexamethasone 10 nM, 24 h
T1 construct: Cells were co-transfected with expression plasmids for full-length hGR and PRβ; expressed in transfected cells; host or cells: LNCaP cells
T1 sequence (P04150 1-777): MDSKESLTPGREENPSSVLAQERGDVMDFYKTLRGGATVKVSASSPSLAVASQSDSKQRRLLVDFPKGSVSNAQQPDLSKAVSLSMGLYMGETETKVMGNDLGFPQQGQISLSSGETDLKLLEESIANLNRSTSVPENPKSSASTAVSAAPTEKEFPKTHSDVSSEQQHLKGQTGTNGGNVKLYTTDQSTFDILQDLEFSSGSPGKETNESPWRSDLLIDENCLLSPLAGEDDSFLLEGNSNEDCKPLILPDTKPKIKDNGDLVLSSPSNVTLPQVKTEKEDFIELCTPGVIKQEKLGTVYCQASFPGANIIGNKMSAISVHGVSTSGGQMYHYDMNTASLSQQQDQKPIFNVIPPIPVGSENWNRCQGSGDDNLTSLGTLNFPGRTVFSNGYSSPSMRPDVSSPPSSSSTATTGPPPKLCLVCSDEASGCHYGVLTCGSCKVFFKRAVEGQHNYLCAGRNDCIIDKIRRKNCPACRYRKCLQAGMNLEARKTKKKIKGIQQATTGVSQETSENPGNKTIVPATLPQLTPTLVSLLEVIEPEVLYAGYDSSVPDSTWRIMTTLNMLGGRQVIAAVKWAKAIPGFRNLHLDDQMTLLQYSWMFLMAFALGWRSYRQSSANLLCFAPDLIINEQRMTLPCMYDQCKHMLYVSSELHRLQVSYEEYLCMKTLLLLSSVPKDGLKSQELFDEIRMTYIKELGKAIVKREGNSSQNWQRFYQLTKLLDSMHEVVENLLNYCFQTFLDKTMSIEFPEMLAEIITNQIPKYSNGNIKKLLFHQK
Description: (§1) White bars represent no steroid (ethanol control). Wherein glucocorticoid receptor (GR) and progesterone receptor (PR).
(§2) Sequence similarities of amino acids in the AR with related human steroid receptors (glucocorticoid receptor (GR) and progesterone receptor (PR)) are significant in some domains such as the DNA-binding-domain (DBD). Although the AR-NTD shares less than 15% homology with the PR and GR, these receptors do interact with some of the same proteins such as SRC-1 (steroid receptor coactivator-1). Therefore, reporter gene assays were used to determine if candidate compounds that block AR activity have any effect on GR and PR transcriptional activity. Cells were co-transfected with expression plasmids for full-length hGR and PRβ and the relative reporter (i.e., pGR-Luc or PRE-E1b-Luc reporters). Cells were then treated with ethanol vehicle, dexamethasone (GR), 4-pregnene-3,20 dione (progesterone) (PR) followed by measurement of luciferase activity.

[2] = molecular target: T2, progesterone receptor (PR) (Homo sapiens, UniProt P06401); experiment: PRE-luciferase reporter assay in LNCaP cells transfected with PRβ; assay type: cell-based; settings: 5 μg/ml, progesterone 10 nM, 24 h
T2 construct: Cells were co-transfected with expression plasmids for full-length hGR and PRβ; expressed in transfected cells; host or cells: LNCaP cells
T2 sequence (P06401 1-933): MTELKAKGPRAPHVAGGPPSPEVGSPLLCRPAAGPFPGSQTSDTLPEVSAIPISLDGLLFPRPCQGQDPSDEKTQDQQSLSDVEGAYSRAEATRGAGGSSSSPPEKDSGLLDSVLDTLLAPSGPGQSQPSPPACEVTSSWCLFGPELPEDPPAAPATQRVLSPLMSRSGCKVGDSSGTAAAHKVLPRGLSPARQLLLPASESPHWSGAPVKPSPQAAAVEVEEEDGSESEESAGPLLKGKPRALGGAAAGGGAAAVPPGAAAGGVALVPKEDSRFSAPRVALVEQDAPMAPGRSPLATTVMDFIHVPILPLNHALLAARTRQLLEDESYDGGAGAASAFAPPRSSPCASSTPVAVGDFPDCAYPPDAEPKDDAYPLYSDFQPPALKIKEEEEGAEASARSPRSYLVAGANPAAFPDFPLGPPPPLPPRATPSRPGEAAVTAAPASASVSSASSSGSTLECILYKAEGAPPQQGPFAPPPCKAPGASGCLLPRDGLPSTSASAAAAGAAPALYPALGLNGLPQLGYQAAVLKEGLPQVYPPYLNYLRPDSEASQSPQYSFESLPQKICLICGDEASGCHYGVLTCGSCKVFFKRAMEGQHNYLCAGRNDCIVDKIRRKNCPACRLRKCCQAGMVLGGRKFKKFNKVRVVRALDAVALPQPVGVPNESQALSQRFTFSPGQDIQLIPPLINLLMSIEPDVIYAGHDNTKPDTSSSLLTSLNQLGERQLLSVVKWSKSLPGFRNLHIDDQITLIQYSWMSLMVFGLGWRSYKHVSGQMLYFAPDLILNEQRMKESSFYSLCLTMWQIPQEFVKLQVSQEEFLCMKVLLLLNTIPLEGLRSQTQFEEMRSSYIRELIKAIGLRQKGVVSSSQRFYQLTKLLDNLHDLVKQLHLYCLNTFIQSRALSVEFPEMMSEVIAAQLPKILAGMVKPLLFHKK
Description: as §1, §2

CCC(=O)N[C@H](C[C@H](C)C(Cl)(Cl)Cl)C(=O)N1C(=O)C=C(OC)[C@@H]1C[C@H](C)C(Cl)Cl [CB3.1, Sintokamide A]
GRE-luciferase activity in response to ligand [1]: did not inhibit
PRE-luciferase activity in response to ligand [2]: did not inhibit
